# In patent US8124793B2, “Derivatives of ethylene methanedisulfonate as cancer chemotherapeutic agents” (priority 2007, dated 2012):
# Tests used:
# Type in all cases: cell-based
# MOLT-4 = experiment: NCI screen, growth of human tumor cells: Leukemia MOLT-4; settings: MOLT-4 (Leukemia), 10^−4 molar
# Method in brief: (§1)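 At least 60 data points describe each compound tested by NCI. Cancer type, molar concentration in the screen and percent growth make up the recorded data.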
# RPMI-8226 = experiment: NCI screen, growth of human tumor cells: Leukemia RPMI-8226; settings: RPMI-8226 (Leukemia), 10^−4 molar
# Method in brief: as §1
# EKVX = experiment: NCI screen, growth of human tumor cells: Non-Small Cell Lung EKVX; settings: EKVX, 10^−4 molar
# Method in brief: as §1
# HOP-62 = experiment: NCI screen, growth of human tumor cells: Non-Small Cell Lung HOP-62; settings: HOP-62 (Non-Small Cell Lung), 10^−4 molar
# Method in brief: as §1
# NCI-H226 = experiment: NCI screen, growth of human tumor cells: Non-Small Cell Lung NCI-H226; settings: NCI-H226 (Non-Small Cell Lung), 10^−4 molar
# Method in brief: as §1
# NCI-H522 = experiment: NCI screen, growth of human tumor cells: Non-Small Cell Lung NCI-H522; settings: NCI-H522, 10^−4 molar
# Method in brief: as §1
# NCI-H460 = experiment: NCI screen, growth of human tumor cells: Non-Small Cell Lung NCI-H460; settings: NCI-H460 (Non-Small Cell Lung), 10^−4 molar
# Method in brief: as §1
# NCI-H322M = experiment: NCI screen, growth of human tumor cells: Non-Small Cell Lung NCI-H322M; settings: NCI-H322M (Non-Small Cell Lung), 10^−4 molar
# Method in brief: as §1
# NCI-H23 = experiment: NCI screen, growth of human tumor cells: Non-Small Cell Lung NCI-H23; settings: NCI-H23, 10^−4 molar
# Method in brief: as §1
# HCC-2998 = experiment: NCI screen, growth of human tumor cells: HCC-2998 (listed under Non-Small Cell Lung); settings: HCC-2998, 10^−4 molar
# Method in brief: as §1
# HCT-116 = experiment: NCI screen, growth of human tumor cells: Colon Cancer HCT-116; settings: HCT-116 (Colon Cancer), 10^−4 molar
# Method in brief: as §1
# HCT-15 = experiment: NCI screen, growth of human tumor cells: Colon Cancer HCT-15; settings: HCT-15 (Colon Cancer), 10^−4 molar
# Method in brief: as §1
# HT29 = experiment: NCI screen, growth of human tumor cells: Colon Cancer HT29; settings: HT29 (Colon Cancer), 10^−4 molar
# Method in brief: as §1
# SW620 = experiment: NCI screen, growth of human tumor cells: Colon Cancer SW620; settings: SW620 (Colon Cancer), 10^−4 molar
# Protocol: (§2) In the NCI screening process, each compound was tested and described by a minimum of 60 data points. The test data include, but are not limited to the type of cancer, the molar concentration used in the screen, and the percent growth of the cancer. In some cases, NMR and elemental analysis were used for structural assignment.
# SF-268 = experiment: NCI screen, growth of human tumor cells: CNS Cancer SF-268; settings: SF-268 (CNS Cancer), 10^−4 molar
# Method in brief: as §1
# SNB-19 = experiment: NCI screen, growth of human tumor cells: CNS Cancer SNB-19; settings: SNB-19 (CNS Cancer), 10^−4 molar
# Method in brief: as §1
# SF-539 = experiment: NCI screen, growth of human tumor cells: CNS Cancer SF-539; settings: SF-539 (CNS Cancer), 10^−4 molar
# Method in brief: as §1
# U-251 = experiment: NCI screen, growth of human tumor cells: CNS Cancer U-251; settings: U-251 (CNS Cancer), 10^−4 molar
# Method in brief: as §1
# LOXIMVI = experiment: NCI screen, growth of human tumor cells: Melanoma LOXIMVI; settings: LOXIMVI (Melanoma), 10^−4 molar
# Method in brief: as §1
# M14 = experiment: NCI screen, growth of human tumor cells: Melanoma M14; settings: M14 (Melanoma), 10^−4 molar
# Method in brief: as §1
# SK-MEL-28 = experiment: NCI screen, growth of human tumor cells: Melanoma SK-MEL-28; settings: SK-MEL-28 (Melanoma), 10^−4 molar
# Method in brief: as §1
# SK-MEL-5 = experiment: NCI screen, growth of human tumor cells: Melanoma SK-MEL-5; settings: SK-MEL-5 (Melanoma), 10^−4 molar
# Method in brief: as §1
# UACC-257 = experiment: NCI screen, growth of human tumor cells: Melanoma UACC-257; settings: UACC-257 (Melanoma), 10^−4 molar
# Method in brief: as §1
# UACC-62 = experiment: NCI screen, growth of human tumor cells: Melanoma UACC-62; settings: UACC-62 (Melanoma), 10^−4 molar
# Method in brief: as §1
# IGROVI = experiment: NCI screen, growth of human tumor cells: Ovarian Cancer IGROVI; settings: IGROVI (Ovarian Cancer), 10^−4 molar
# Method in brief: as §1
# OVCAR-3 = experiment: NCI screen, growth of human tumor cells: Ovarian Cancer OVCAR-3; settings: OVCAR-3 (Ovarian Cancer), 10^−4 molar
# Method in brief: as §1
# OVCAR-4 = experiment: NCI screen, growth of human tumor cells: Ovarian Cancer OVCAR-4; settings: OVCAR-4, 10^−4 molar
# Method in brief: as §1
# OVCAR-5 = experiment: NCI screen, growth of human tumor cells: Ovarian Cancer OVCAR-5; settings: OVCAR-5 (Ovarian Cancer), 10^−4 molar
# Method in brief: as §1
# OVCAR-8 = experiment: NCI screen, growth of human tumor cells: Ovarian Cancer OVCAR-8; settings: OVCAR-8 (Ovarian Cancer), 10^−4 molar
# Protocol: as §2
# 786-0 = experiment: NCI screen, growth of human tumor cells: Renal Cancer 786-0; settings: 786-0 (Renal Cancer), 10^−4 molar
# Method in brief: as §1
# ACHN = experiment: NCI screen, growth of human tumor cells: Renal Cancer ACHN; settings: ACHN (Renal Cancer), 10^−4 molar
# Method in brief: as §1
# RXF-393 = experiment: NCI screen, growth of human tumor cells: Renal Cancer RXF-393; settings: RXF-393 (Renal Cancer), 10^−4 molar
# Method in brief: as §1
# SN12C = experiment: NCI screen, growth of human tumor cells: Renal Cancer SN12C; settings: SN12C (Renal Cancer), 10^−4 molar
# Method in brief: as §1
# CAKI-1 = experiment: NCI screen, growth of human tumor cells: Renal Cancer CAKI-1; settings: CAKI-1 (Renal Cancer), 10^−4 molar
# Method in brief: as §1
# DU-145 = experiment: NCI screen, growth of human tumor cells: Prostate Cancer DU-145; settings: DU-145 (Prostate Cancer), 10^−4 molar
# Method in brief: as §1
# MCF 7 = experiment: NCI screen, growth of human tumor cells: Breast Cancer MCF 7; settings: MCF 7 (Breast Cancer), 10^−4 molar
# Method in brief: as §1
# MCF7/ADR-RES = experiment: NCI screen, growth of human tumor cells: Breast Cancer MCF7/ADR-RES; settings: MCF7/ADR-RES (Breast Cancer), 10^−4 molar
# Method in brief: as §1
# BT-549 = experiment: NCI screen, growth of human tumor cells: Breast Cancer BT-549; settings: BT-549 (Breast Cancer), 10^−4 molar
# Method in brief: as §1
# HS 578T = experiment: NCI screen, growth of human tumor cells: Breast Cancer HS 578T; settings: HS 578T (Breast Cancer), 10^−4 molar
# Method in brief: as §1
# MDA-MB-231/ATCC = experiment: NCI screen, growth of human tumor cells: Breast Cancer MDA-MB-231/ATCC; settings: MDA-MB-231/ATCC (Breast Cancer), 10^−4 molar
# Protocol: as §2
# MDA-MB-435 = experiment: NCI screen, growth of human tumor cells: Breast Cancer MDA-MB-435; settings: MDA-MB-435 (Breast Cancer), 10^−4 molar
# Method in brief: as §1
# MDA-N = experiment: NCI screen, growth of human tumor cells: Breast Cancer MDA-N; settings: 10^−4 molar
# Protocol: as §2
# human cancer cells = experiment: NCI screen summary over the cancers tested (negative growth of human cancer cells); settings: 10^−4 M conc.; cancers with negative growth / cancers tested
# Protocol: as §2
# The derivatives in the tables are grouped using the same category as in the tables 1-6.
smiles,measurement,setting,value
CCOCC1(COCC)S(=O)(=O)OCCOS1(=O)=O [NSC 698120],percent of growth of human tumor cells,MOLT-4,23%
same,percent of growth of human tumor cells,RPMI-8226,10%
same,% Growth,EKVX,−99%
same,percent of growth of human tumor cells,HOP-62,23%
same,percent of growth of human tumor cells,NCI-H226,0%
same,% Growth,NCI-H522,−83%
same,percent of growth of human tumor cells,NCI-H460,−38%
same,percent of growth of human tumor cells,NCI-H322M,20%
same,% Growth,NCI-H23,−72%
same,% Growth,HCC-2998,−92%
same,percent of growth of human tumor cells,HCT-116,−6%
same,percent of growth of human tumor cells,HCT-15,−27%
same,percent of growth of human tumor cells,HT29,−3%
same,percent of growth of human tumor cells,SW620,−3%
same,percent of growth of human tumor cells,SF-268,21%
same,percent of growth of human tumor cells,SNB-19,14%
same,percent of growth of human tumor cells,SF-539,20%
same,percent of growth of human tumor cells,U-251,−47%
same,percent of growth of human tumor cells,LOXIMVI,−25%
same,percent of growth of human tumor cells,M14,−36%
same,percent of growth of human tumor cells,SK-MEL-28,12%
same,percent of growth of human tumor cells,SK-MEL-5,25%
same,percent of growth of human tumor cells,UACC-257,−14%
same,percent of growth of human tumor cells,UACC-62,−36%
same,percent of growth of human tumor cells,IGROVI,−28%
same,percent of growth of human tumor cells,OVCAR-3,−13%
same,% Growth,OVCAR-4,−88%
same,percent of growth of human tumor cells,OVCAR-5,−28%
same,percent of growth of human tumor cells,OVCAR-8,−43%
same,percent of growth of human tumor cells,786-0,15%
same,percent of growth of human tumor cells,ACHN,18%
same,percent of growth of human tumor cells,RXF-393,−36%
same,percent of growth of human tumor cells,SN12C,24%
same,percent of growth of human tumor cells,CAKI-1,7%
same,percent of growth of human tumor cells,DU-145,24%
same,percent of growth of human tumor cells,MCF 7,27%
same,percent of growth of human tumor cells,MCF7/ADR-RES,−26%
same,percent of growth of human tumor cells,BT-549,−4%
same,percent of growth of human tumor cells,HS 578T,15%
same,percent of growth of human tumor cells,MDA-MB-231/ATCC,18%
same,percent of growth of human tumor cells,MDA-MB-435,1%
same,percent of growth of human tumor cells,MDA-N,3%
same,Percentage of cancers showing negative growth cancers tested,human cancer cells,10^−4 M conc. = 22/42 = 52%
